Source: patent US9682928B2 (NeuroPro Therapeutics, Inc., priority 2009, dated 2017)
Read-outs that look alike come from different tables or passages of the source.

Assays:
[1] = system: rats; assay: Contextual fear conditioning in rats; assay type: in vivo, rat; conditions: I.V.; furosemide 100 mg/kg, bumetanide 50 mg/kg
Description: Contextual fear conditioning involves pairing an aversive event, in this case moderate foot shock, with a distinctive environment. The strength of the fear memory is assessed using freezing, a species-typical defensive reaction in rats, marked by complete immobility, except for breathing. […] However, if they are allowed to explore the distinctive environment sometime before the immediate shock, they show intense anxiety and fear when placed back into the same environment. By procedurally dividing contextual fear conditioning into two phases, the effects of treatments on memory for the context (specifically a hippocampus based process) from learning the association between context and shock or experiencing the aversiveness of the shock (which depend upon emotional response circuitry including amygdala) were separately studied. […] The experiment employed 24 rats. […] Each rat was again placed into the same environment for 8 min during which time freezing was measured, as an index of Pavlovian conditioned fear. […] Measurement of freezing was accomplished through an overhead video camera connected to the microcomputer and was automatically scored using a specialty piece of software, FreezeFrame (OER Inc., Reston, Va.) Total freezing time was analyzed in a one-way analysis of variance (ANOVA) test, with drug dose as the […] factor.

[2] = system: rats; assay: Fear potentiated startle (FPS) test in rats; assay type: in vivo, rat; conditions: i.v.; furosemide 100 mg/kg, bumetanide 70 mg/kg
Description: FPS is a commonly used assessment of therapeutic value of anxiolytic compounds in the rat. Rats received a 30 min period of habituation to the FPS apparatus. 24-hr later baseline startle amplitudes were collected. The rats will be divided into two matched groups based on baseline startle amplitudes. Following baseline startle amplitude collection 20 light/shock pairings were delivered on 2 sessions over 2 consecutive days (i.e., 10 light/shock pairings per day). On the final day, one group of rats received an injection (i.v.) of a bumetanide analog and the other group received vehicle only. Immediately following injections, startle amplitudes were assessed during startle alone trials and startle plus fear (light followed by startle) trials. Fear potentiated startle (light+startle amplitudes minus startle alone amplitudes) was compared between the treatment groups.
Animals were trained and tested in four identical stabilimeter devices (Med-Associates). Briefly, each rat was placed in a small Plexiglas cylinder. The floor of each stabilimeter consists of four 6-mm-diameter stainless steel bars spaced 18 mm apart through which shock can be delivered. Cylinder movements result in displacement of an accelerometer where the resultant voltage is proportional to the velocity of the cage displacement. Startle amplitude is defined as the maximum accelerometer voltage that occurs during the first 0.25 sec after the startle stimulus is delivered. The analog output of the accelerometer is amplified, digitized on a scale of 0-4096 units and stored on a microcomputer. Each stabilimeter is enclosed in a ventilated, light-, and sound-attenuating box. All sound level measurements were made with a Precision Sound Level Meter. The noise of a ventilating fan attached to a sidewall of each wooden box produces an overall background noise level of 64 dB. The startle stimulus is a 50 ms burst of white noise (5 ms rise-decay time) generated by a white noise generator. The visual conditioned stimulus used was illumination of a light bulb adjacent to the white noise source. The unconditioned stimulus was a 0.6 mA foot shock with duration of 0.5 sec, generated by four constant-current shockers located outside the chamber. The presentation and sequencing of all stimuli were under the control of the microcomputer.
FPS procedures consisted of 5 days of testing; during days 1 and 2 baseline startle responses were collected, days 3 and 4 light/shock pairings were delivered, day 5-testing for fear potentiated startle was conducted.
Matching. On the first two days all rats were placed in the Plexiglas cylinders and 3 min later presented with 30 startle stimuli at a 30 sec interstimulus interval. An intensity of 105 dB was used. […]

[3] = system: rat hippocampal slices
Description: Sprague-Dawley rats (males and females; 25-35 days old) were decapitated, the top of the skull was rapidly removed, and the brain chilled with ice-cold oxygenated slicing medium. […] A hemisphere of brain containing hippocampus was blocked and glued (cyanoacrylic adhesive) to the stage of a Vibroslicer (Frederick Haer, Brunsick, Me.). […] In the recording chamber, the slices were perfused with oxygenated recording medium at 34-35° C. […] In most slice experiments, simultaneous extracellular field electrode recordings were obtained from CA1 and CA3 areas. A bipolar tungsten stimulating electrode was placed on the Schaffer collaterals to evoke synaptically-driven field responses in CA1. Stimuli consisted of 100-300 μsec duration pulses at an intensity of four times the population-spike threshold. After discharges were evoked by a 2 second train of such stimuli delivered at 60 Hz. […] The tissue was allowed to recover for 10 minutes between stimulation trials. In each experiment, the initial response of CA1 to synaptic input was first tested by recording the field potential evoked by a single stimulus pulse. […] Rat hippocampal slices, prepared as described above, were perfused with a high-K^+ solution until extended periods of spontaneous interictal-like bursting were recorded simultaneously in CA3 (top traces) and CA1 (lower traces) pyramidal cell regions (FIGS. 18A and 18B). […] Hippocampal slices were prepared from Sprague-Dawley adult rats as described previously. Transverse hippocampal slices 100 μm thick were cut with a vibrating cutter. Slices typically contained the entire hippocampus and subiculum. After cutting, slices were stored in an oxygenated holding chamber at room temperature for at least one hour before recording. […] In some experiments, normal or low-chloride medium was used containing bicuculline.

[4] = system: Sprague-Dawley rats; assay: Epileptiform activity induced by i.v. kainic acid in urethane-anesthetized rats; assay type: in vivo, rat; conditions: intravenous, cumulative dose 40-60 mg/kg
Description: Body temperature was monitored using a rectal temperature probe and maintained at 35-37° C. with a heating pad; heart rate (EKG) was continuously monitored. The jugular vein was cannulated on one side for intravenous drug administration. Rats were placed in a Kopf stereotaxic device (with the top of the skull level), and a bipolar stainless-steel microelectrode insulated to 0.5 mm of the tip was inserted to a depth of 0.5-1.2 mm from the cortical surface to record electroencephalographic (EEG) activity in the fronto-parietal cortex. In some experiments, a 2M NaCl-containing pipette was lowered to a depth of 2.5-3.0 mm to record hippocampal EEG. Data were stored on VHS videotape and analyzed off-line.
Following the surgical preparation and electrode placement, animals were allowed to recover for 30 minutes before the experiments were initiated with an injection of kainic acid (10-12 mg/kg i.v.). […] Experiments were terminated with the intravenous administration of urethane. Animal care was in accordance with NIH guidelines and approved by the University of Washington Animal Care Committee.

[5] = system: primate; assay: Acute primate seizure models; conditions: in vivo
Excerpt: FIG. 13 depicts epileptiform spikes and bursts generated using software for the automatic quantification epileptiform activity. FIG. 13A depicts after-discharge activity that was elicited by 4 seconds of electrical stimulation to primate sensory cortex. The software developed by Haglund and Hochman (2007) finds the envelope around a burst of spikes and calculates the duration of the burst, the number of spikes within the burst, and the average spike amplitude of all spikes comprising the burst.
FIG. 13B depicts a typical spike generated by an acute bicuculline focus in primate motor cortex. The bicuculline model generates epileptiform activity that is similar to spontaneous interictal spiking in human subjects. Analysis of the data by the software identifies the time of occurrence of each spike and its peak-to-peak amplitude. This software can automatically process entire data sets consisting of hours of recorded data from multiple traces and generate an output of the data. Statistical analysis of data sets from multiple experiments can then be used to analyze the effects of various treatments (e.g., compounds that suppress epliptiform activity). See Haglund and Hochman (2007) “Imaging of Intrinsic Optical Signals in Primate Cortex during Epileptiform Activity.” Epilepsia 48(Suppl. 4): 65-74; See also Haglund and Hochman (Feb. 23, 2005) J. Neurophysiol. 94: 907-918.

[6] = system: human subjects; conditions: cited from earlier work

Compound: NS(=O)(=O)c1cc(C(=O)O)c(NCc2ccco2)cc1Cl [Furosemide]
- Freezing vs vehicle alone [1]: significantly less freezing
- Difference score on the test day vs vehicle alone [2]: statistically significantly lower difference score
- Difference score one week after treatment vs vehicle alone [2]: higher difference score
- Minimum concentration required to block both the after discharges and optical changes [3]: 1.25 mM
- Latency to block of bursting ([3]; 0-Ca2+ experiments, 5 mM furosemide): 15 to 20 min
- Stimulation-evoked after discharge activity and optical changes ([3]; 2.5 mM furosemide, 20 minutes of perfusion): blocked
- Spontaneous bursts in high-K+ (10 mM) medium ([3]; 2.5 mM furosemide, after 45 minutes of perfusion): blocked in a reversible manner
- Latency to block of bursting ([3]; all other protocols, 2.5 mM furosemide): 20 to 60 min
- Anticonvulsant resistant bursts after 3 hours of 0-Mg medium ([3]; one hour after the addition of furosemide): blocked
- Kainic acid-evoked seizure activity (electrical status epilepticus) [4]: blocked seizure activity
- Latency to block of seizure activity [4]: 30 to 45 min
- Suppression of epileptiform activity [5]: suppresses epileptiform activity
- Average reduction in the duration of stimulation-evoked after-discharge activity ([6]; 8 patients): 85%
- Average reduction in spiking frequency ([6]; five patients, 20 mg intravenous bolus): approximately 60%
- Mean interspike interval following furosemide treatment ([6]; five patients, 9.6 s prior to furosemide): 21.9 s
- Patients with complete blockade of after-discharge activity ([6]; of 8 patients): 4 patients
- Patients with reduction by more than 50% of duration and amplitude of after-discharge activity ([6]; of 8 patients): 4 patients
